{"source": "patent US20180243190A1", "about": "“ACTIVATORS OF NRF2-DEPENDENT PHOTOPROTECTION AND RELATED USES THEREOF” (THE ARIZONA BOARD OF REGENTS ON BEHALF OF THE UNIVERSITY OF …, priority 2015, published 2018)", "key": {"NRF2": {"system": "NRF2", "assay": "Cell-based NRF2 ubiquitination assay", "set-up": "species or system human", "conditions": "HaCaT, bixin 40 μM or SF 5 μM with MG132 10 μM, 4 h", "description": "In order to test if bixin-based NRF2 activation occurs through inhibition of KEAP1-mediated ubiquitination, a cell-based ubiquitination assay was performed in HaCaT cells cotransfected with expression vectors for NRF2 and HA-tagged ubiquitin (HA-Ub) (FIG. 3F). To this end, cells were either exposed to bixin (40 μM) or sulforaphane (SF; 5 μM, positive control) or left untreated, combined with proteasome inhibition (MG132; 10 μM, 4 h).\nExperiments were performed according to previously published procedures. Cells were harvested in sample buffer (50 mM Tris-HCl [pH 6.8], 2% sodium dodecyl sulfate (SDS), 10% glycerol, 100 mM dithiothreitol (DTT), and 0.1% bromophenol blue), boiled and sonicated. Total cell lysates were resolved by SDS-PAGE and subjected to immunoblot analyses with the indicated antibodies. For the ubiquitination assay, cells were cotransfected with expression vectors for NRF2 and HA-tagged ubiquitin (HA-Ub). Cells were left untreated or treated with either 5 μM sulforaphane (SF) or 40 μM bixin along with 10 μM MG132 for 4 h. Cells were harvested in buffer containing 2% SDS, 150 mM NaCl, 10 mM Tris-HCl (pH 8.0), and 1 mM DTT and boiled immediately. […] The relative intensity of the bands was quantified using the ChemiDoc CRS gel documentation system and Quantity One software (BioRad)."}, "[1]": {"system": "NRF2, KEAP1, GCLM, AKR1C1 mRNA", "assay": "Quantitative real-time RT-PCR in HaCaT cells", "format": "cell-based, human", "conditions": "40 μM, 4 h and 16 h", "description": "Total RNA was extracted from HaCaT cells and mouse skin tissues using TRIzol (Invitrogen). Equal amounts of mRNA were used to generate cDNA using the M-MLV Reverse Transcriptase synthesis kit according to the manufacturer's instructions (Promega). RT-PCR and primer sequences of NRF2, KEAP1, GCLM, AKR1C1 and GAPDH were described previously to evaluate mRNA expression using the LightCycler 480 system (Roche). Quantification of cDNA amount for mouse Nrf2, Keap1, Gclm, and Akr1c1 in each skin tissue sample was performed using the KAPA SYBR FAST qPCR Kit (Kapa Biosystems)."}, "SKH-1 mice skin": {"system": "SKH-1 mice skin", "assay": "Solar UV photodamage model", "format": "in vivo", "description": "Next, the feasibility of bixin-induced cutaneous protection was studied in a solar UV photodamage model. Nrf2^+/+ and Nrf2^−/− mice were i.p. injected with either corn oil (carrier control) or bixin (200 mg/kg) 48 h before solar UV exposure (240 mJ/cm^2 UVB; 4.4 J/cm^2 UVA). 24 h after UV exposure back skin tissue was then collected followed by immunohistochemical (IHC) analysis. […] Moreover, UV exposure alone activated the NRF2 response in murine skin, effects not detectable in Nrf2^−/− mice (FIG. 5).\nIrradiation with solar UV occurred as described before. A KW large area light source solar simulator, model 91293, from Oriel Corporation (Stratford, Conn.) was used, equipped with a 1000 W Xenon arc lamp power supply, model 68920, and a VIS-IR bandpass blocking filter combined with an atmospheric attenuation filter (output 290-400 nm plus residual 650-800 nm). At 345 mm from the source, the UV dose was 4.4 J/cm^2 UVA+240 mJ/cm^2 UVB radiation.\nNrf2^+/+ and Nrf2^−/− SKH-I mice were obtained by breeding Nrf2 heterozygous mice generated by back-crossing Nrf2^−/− C57BL/6 mice onto the SKH-1 hairless mouse genetic background for at least six generations (JAX® Mice, The Jackson Laboratory). All animals received water and food ad libitum and were handled according to the Guide for the Care and Use of Laboratory Animals; the protocols were approved by the University of Arizona Institutional Animal Care and Use Committee. Eight-week-old Nrf2^+/+ and Nrf2^−/− mice were randomly allocated into four groups (n=6): (i) control (corn oil); (ii) bixin (200 mg/kg, dissolved in corn oil); (iii) UV; (iv) bixin+UV. Bixin was administered through intraperitoneal (i.p.) injection 48 h before UV exposure.\n24 h after UV exposure, the mice were euthanized and back skin was collected and divided into two parts: one part was frozen in liquid nitrogen for total RNA extraction and protein analysis; the other part was fixed in 10% buffered formalin and embedded in paraffin for histological and immunohistochemical analyses. Tissue sections (4 μm) were baked and deparaffinized. Hematoxylin and eosin (H&E) staining was performed for pathological examination. Antigen retrieval was carried out by boiling the slides with retrieval solution (citric acid monohydrate 2.1 g/L in H2O pH=6.0) three times for 5 min [43]. Tissue sections were then exposed to 3.5 M HCl for 15 min at room temperature and washed with PBS. Subsequently, tissue sections were treated with 0.3% […] to quench endogenous peroxidase activity. Tissue sections were incubated with 5% normal goat serum for 30 min followed by 2 h incubation with primary antibodies at 1:100 dilution at room temperature. Staining was performed using the EnVision+System-HRP (DAB) kit (Dako) according to the manufacturer's instructions.\nAn in situ cell death detection kit (Roche) was used for detection of apoptotic cell death in skin sections according to the manufacturer's instructions. Briefly, tissue sections were pretreated with proteinase K (20 μg/ml) in 10 mM Tris/HCl (pH 7.8) at 37° C. for 30 min. After washing three times with PBS, tissue sections were incubated with TUNEL reaction mixture for 1 h at 37° C. in the dark. Tissue sections were then stained with Hoechst, and analyzed using a fluorescence microscope (Zeiss Observer.Zi microscope; slidebook computer program; excitation wavelength: 450-500 nm; detection wavelength: 515-565 nm). Hoechst stain was visualized under UV light."}, "[2]": {"conditions": "200 mg/kg i.p. 48 h before solar UV, effect confined to Nrf2+/+ mice"}}}
{"smiles": "COC(=O)/C=C/C(C)=C\\C=C\\C(C)=C\\C=C\\C=C(C)\\C=C\\C=C(C)\\C=C\\C(=O)O", "note": "[bixin]", "values": [{"measurement": "NRF2-ubiquitination versus untreated control", "setting": "NRF2", "value": "dramatic reduction"}, {"measurement": "NRF2 or KEAP1 mRNA levels", "setting": "[1]", "value": "without affecting"}, {"measurement": "NRF2 target genes at the mRNA level (GCLM, AKR1C1)", "setting": "[1]", "value": "pronounced upregulation"}, {"measurement": "UV-induced apoptosis (TUNEL-positive cells)", "setting": "SKH-1 mice skin; [2]", "value": "suppressed"}, {"measurement": "UV-induced epidermal thickening", "setting": "SKH-1 mice skin; [2]", "value": "suppressed"}, {"measurement": "cyclobutane pyrimidine dimer (CPD)-lesions", "setting": "SKH-1 mice skin; Nrf2+/+ and Nrf2−/− mice, 200 mg/kg i.p.", "value": "not antagonized"}, {"measurement": "UV-induced epidermal expression of MMP9 (IHC)", "setting": "SKH-1 mice skin; Nrf2+/+ mice only, 200 mg/kg i.p.", "value": "significantly antagonized"}, {"measurement": "UV-elicited keratinocyte hyperproliferation (Ki67 IHC)", "setting": "SKH-1 mice skin; Nrf2+/+ mice, 200 mg/kg i.p.", "value": "suppression"}, {"measurement": "UV-enhanced 8-oxo-dG staining (IHC)", "setting": "SKH-1 mice skin; Nrf2+/+ mice, 200 mg/kg i.p.", "value": "suppressed"}, {"measurement": "UV-induced p-p65 accumulation in the skin", "setting": "SKH-1 mice skin; Nrf2+/+ mice, 200 mg/kg i.p.", "value": "decreased"}, {"measurement": "UV-enhanced 8-oxo-dG staining (IHC)", "setting": "SKH-1 mice skin; Nrf2−/− mice, 200 mg/kg i.p.", "value": "not Nrf2^−/− mice"}, {"measurement": "UV-induced p-p65 accumulation in the skin", "setting": "SKH-1 mice skin; Nrf2−/− mice, 200 mg/kg i.p.", "value": "minimal effects"}, {"measurement": "UV-induced NF-κB target gene expression (IL6, TNFα, MMP9) at the mRNA level", "setting": "SKH-1 mice skin; observed only in Nrf2+/+ mice, 200 mg/kg i.p.", "value": "attenuation"}]}
